In patent US20110002993A1, “FILM COATED TABLETS CONTAINING DROSPIRENONE AS ACTIVE AGENT AND A METHOD FOR THE PREPARATION THEREOF” (RICHTER GEDEON NYRT., priority 2007, published 2011):

Experiment: solubility of drospirenone in water
Type: physicochemical
Text: For dissolution of such a large amount of active agent a large amount of pharmaceutically and environmentally acceptable solvent is needed. […] In the preparation process according to the invention the solvent is ethanol. Ethanol is the most advantageous solvent from the environmental and safety point of views.

## C[C@]12CCC(=O)C=C1[C@@H]1C[C@@H]1[C@H]1[C@@H]3[C@@H]4C[C@@H]4[C@@]4(CCC(=O)O4)[C@@]3(C)CC[C@@H]12 [drospirenone, 6β,7β;15β,16β-dimethylene-3-oxo-17α-pregn-4-en-21,17-carbolactone]
  solubility in water: substantially insoluble in water
